Assay results as given in US4839343A, “Preparation containing hexatriacontapeptides and methods of use” (Debiopharm, S.A., priority 1987, dated 1989).

Tests used:
[1] = test system: Normotensive male Wistar rats; test: Endotoxin-induced blood pressure fall in adrenal-demedullated conscious rats, i.v. NPY infusion; assay type: in vivo, rat
Description: Normotensive male Wistar rats were subjected to adrenal demedullation on the right side and either adrenolectomized or sham-operated on the left side. Ten days later a solution of NPY in non-alkaline saline was given as an intravenous infusion (70 ng/min) to these conscious semi-restrained animals. A group of control animals received only the saline diluent. During the last 75 minutes of the experiment, endotoxin (LPs E. Coli 0111: B4, 10 mcg/min i.v.) was administered both in NPY-treated and control animals.

[2] = test system: patient seriously affected by bacteremic (endotoxic) shock; test: Treatment of patient with bacteremic (endotoxic) shock by intravenous peptide infusion; assay type: in vivo, human
Description: A patient seriously affected by bacteremic (endotoxic) shock was admitted in an intensive care unit and treated with dopamine given intravenously at doses of 10 and 20 mcg/kg/min.
A solution of NPY was then given by intravenous infusion at increasing doses of 0.01 to 50 pmol/kg/min over a period of 10 hours.

[3] = test system: Conscious normotensive rats; test: Pressor response to norepinephrine in conscious normotensive rats infused with endotoxin and/or NPY; assay type: in vivo, rat
Description: Conscious normotensive rats were divided into six groups. Rats of Group II and IV were infused intravenously with NPY (0.1 mcg/min for 75 min). A further two groups of rats (I and III) received the vehicle of the peptide ([…]) for the same period. Escherichia Coli endotoxin (lipopolysaccharide E. Coli 0.111: B4, Difco Laboratories, Detroit, MI), 10 mcg/10 mcl/min was infused starting 15 min after the beginning of the NPY-infusion (Group IV) or its vehicle (Group III). The remaining rats (Groups I and […]) were given the vehicle of endotoxin, 10 mcl/min i.v. In all these rats, a dose-response curve to intravenous injections of norepinephrine was obtained 5 min after ending the administration of NPY. The infusion of endotoxin or its vehicle was continued throughout this period. In two additional groups rats infused for 45 min with endotoxin or its vehicle, a 2 ml blood sample was obtained via the arterial catheter for determination of plasma NPY levels.
The endotoxin was dissolved in 0.9% NaCl to achieve a concentration of […]. NPY was diluted with 0.1M HCl to a concentration of 10 mg/l. Aliquots containing 15 mcg were stored frozen at -70° C. and thawed immediately before use. The different solutions were infused using a syringe pump (Model 455, Sage Instrument, White Plains, NY). Norepinephrine (Arterenol, Hoechst, Frankfurt-am-Main, FRG) was diluted in 0.9% NaCl to attain a concentration of 20 ng/20 mcl. Using a 250 mcl glass syringe (Hamilton), the dose of norepinephrine was increased by altering the volume injected.

Compound	reduction of intraarterial mean blood pressure during endotoxin infusion ([1]; NPY 70 ng/min i.v. infusion, endotoxin 10 mcg/min i.v. for last 75 min, 12 rats, baseline 116±1.6 mm Hg, controls dropped 40±6.4 mm Hg, 2 of 9 died)	effect of NPY infusion alone on blood pressure ([1]; another group of rats, NPY 70 ng/min i.v., no endotoxin)	effect on concomitant dopamine dose ([2]; NPY i.v. infusion 0.01 to 50 pmol/kg/min over 10 hours, each time tachycardia was observed)	arterial pressure of the patient ([2]; NPY i.v. infusion, increasing doses 0.01 to 50 pmol/kg/min over 10 hours, with dopamine)	pressor effects of norepinephrine after NPY infused alone (Group II) versus control (Group I) ([3]; NPY 0.1 mcg/min i.v. 75 min, norepinephrine 20, 40, 80, 160 ng, p<0.001, <0.01, <0.001, <0.05)	blood pressure response to norepinephrine in endotoxin plus NPY rats (Group IV) versus control rats (Group I) ([3]; NPY 0.1 mcg/min i.v. 75 min plus endotoxin, all norepinephrine doses tested)	blood pressure response to norepinephrine in endotoxin-treated rats (Group IV) versus endotoxin alone (Group III) ([3]; NPY 0.1 mcg/min i.v. 75 min plus endotoxin, norepinephrine 20, 40, 80, 160 ng i.v., p<0.05, <0.01, <0.01, <0.05)	effect on blood pressure or heart rate before norepinephrine injections ([3]; NPY 0.1 mcg/min i.v. for 75 min, alone or in combination with endotoxin 10 mcg/min)	duration of NPY-induced facilitation of norepinephrine evoked changes in blood pressure ([3]; last norepinephrine dose given 50 min after stopping the NPY infusion)	arterial pressure of the patient under dopamine alone ([2]; dopamine i.v. 10 and 20 mcg/kg/min, before NPY)
neuropeptide Y [NPY]	8±2.1 mm Hg	no significant effect on blood pressure	allowed a decrease in the dose of dopamine	normalization of arterial pressure	significantly enhanced	no longer any significant difference	significantly greater than in those animals receiving endotoxin alone	no significant effect on blood pressure or heart rate	long-lasting	–
NCCc1ccc(O)c(O)c1 [dopamine, reference compound]	–	–	–	–	–	–	–	–	–	continued to fall
